Assay [1] deals with T1, Menin-MLL1 (Homo sapiens, UniProt O00255).
T1 construct: Menin (2-610) isform2; purchased ChemPartner 2020111101
T1 sequence (O00255 2-610): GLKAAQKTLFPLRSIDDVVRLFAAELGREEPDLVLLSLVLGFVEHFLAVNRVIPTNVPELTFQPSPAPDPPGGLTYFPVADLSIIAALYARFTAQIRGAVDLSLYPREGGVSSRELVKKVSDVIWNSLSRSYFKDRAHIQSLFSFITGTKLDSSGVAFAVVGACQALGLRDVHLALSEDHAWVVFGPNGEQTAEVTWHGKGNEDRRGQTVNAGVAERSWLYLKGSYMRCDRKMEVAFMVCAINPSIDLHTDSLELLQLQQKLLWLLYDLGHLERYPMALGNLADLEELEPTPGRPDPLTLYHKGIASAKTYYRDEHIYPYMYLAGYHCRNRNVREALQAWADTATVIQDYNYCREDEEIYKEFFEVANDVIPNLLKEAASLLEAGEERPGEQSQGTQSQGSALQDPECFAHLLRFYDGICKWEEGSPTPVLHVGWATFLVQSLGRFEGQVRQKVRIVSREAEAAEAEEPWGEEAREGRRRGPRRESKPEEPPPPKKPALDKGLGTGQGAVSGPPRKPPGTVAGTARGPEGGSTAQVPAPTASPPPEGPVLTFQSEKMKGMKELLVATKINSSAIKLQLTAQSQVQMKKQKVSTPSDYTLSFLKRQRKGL
The assay can be described thus: Menin-MLL1 inhibition assay (fluorescence polarization, Menin protein + FAM-MLL peptide). It is filed as binding. The note with it: Menin (2-610) isoform 2, FAM-labelled MLL peptide, mP readout; read-out: Biochemical assay Menin-MLL1 IC50. As to the method: 1× assay bu9ffer (Tris 7.5 50 mM, NaCl 50 mM, DTT 1 mM, Tween-20 0.01%) was prepared and test compounds solution (10 mM in DMSO, Sigma, Cat. No. 34869) were transferred to assay plate (384-well plate, Perkin Elmer, Cat. No. 6007279) by Echo. The final fraction of DMSO is 1%. 20 nM of Menin protein (Menin (2-610) isform2, ChemPartner, Cat. No. 2020111101) in 1× assay buffer was added to prepare 2× enzyme solution. Then 10 nM of MLL-peptide (Ac-SRWRFPARPGTGRR-Ahx-Ahx-K(FAM)-NH2, GL Biochem (Shanghai)), Cat. No. 833831/202009220104) in 1× assay buffer was added to prepare 2× substrate solution. 10 μL of 2× enzyme solution was transferred to assay plate or 10 μL of 1× assay buffer for low control group. 10 μL of 2× substrate solution was added to each well to start reaction. mP data on Envision (Ex480/Em535(s), Em535(p)) was collected.
Compound potencies were determined by first calculating % inhibition at each compound concentration according to equation 1:
Inhibition %=(Max−Signal)/(Max−Min)*100 (Equation 1)
Y=Bottom+(Top-Bottom)/(1+(IC50/X)[…]), where Y is % inhibition and X is compound concentration (Equation 2)

For assay [2], the system named is MV-4-11 cells. The assay can be described thus: Cell proliferation assay (CellTiter-Glo), MV-4-11. Format: cell-based, human. The note with it: Homo sapiens, MV4-11, 96 h; MV-4-11 (MLL-AF4), 4 days incubation; read-out: Cell antiproliferation assay MV-4-11 IC50. As to the method:
The antiproliferative activity of test compounds was assessed in human leukemia cell lines. The cell line MV4-11, MOLM13 and OCI-AML3, which expresses the MLL fusion protein MLL-AF4, MLL-AF9 and carry the NPM1c gene mutation, respectively, were tested. HL-60 was used as a control cell line containing two MLL wildtype alleles in order to exclude compounds that display general cytotoxic effect. MV4-11 cells were cultured in IMDM supplemented with 10% FBS, MOLM13 and OCI-AML3 cells were cultured in RPMI1640 supplemented with 20% FBS, and HL-60 cells were cultured in IMDM supplemented with 20% FBS. Corresponding cells (MV4-11, MOLM13, OCI-AML3 or HL-60 cell line) were seeded in 100 uL medium per well in 96-well plate (white wall with clear bottom, tissue culture treated, Corning, Cat. No. CLS3903; Lot.No. 30419025). Plates were placed in the CO2 incubator overnight. Compounds solution (2 mM starting, 4-fold serial dilution) were prepared and added to the wells containing 100 μL of the culture medium with HPD300 according to the plate map and centrifuge at 1000 rpm for 1 minutes (200-fold dilution totally). MV4-11, MOLM13, OCI-AML3 and HL-60 cells were incubated with the compounds for 4, 12, 5 and 4 days, respectively, under 5% CO2 at 37° C., respectively. 100 μL of CellTiter-Glo reagent (Promega, Cat. No. G7573, Lot. No. 0000416710) was added to the assay plate by Multidrop Combi instrument, contents were mixed for 10 minutes on an orbital shaker to induce cell lysis. After incubation at room temperature for 10 mins, clear bottom with white back seal was pasted and luminescence with Envision was read.
(Cellular ATP, detected with luciferase, serves as a proxy for viable cell number.)

With `CCN(C(=O)c1cc(F)ccc1Oc1cncnc1N1CC2(CCN(C(=O)[C@@H]3C[C@@H](OC(F)F)CN3)CC2)C1)C(C)C` [Example 10], the IC50 in assay [1] was determined as 8.3 nM; in assay [2] it was 238 nM.

For the compound `CCN(C(=O)c1cc(F)ccc1Oc1nncnc1N1CC2(CCN(C(=O)[C@@H]3NCC[C@H]3C3CC3)CC2)C1)C(C)C` [Example 100b], the IC50 came out at 11.7 nM in assay [1] and 284 nM in assay [2].

Turning to `CCN(C(=O)c1cc(F)ccc1Oc1cncnc1N1CCC2(CC1)CN(C(=O)[C@@H]1C[C@@H](F)CN1)C2)C(C)C` [Example 46], the figures for the IC50 in assay [1] and in assay [2] were 7.7 nM and 494 nM, respectively.

In the case of `CCN(C(=O)c1ccccc1Oc1cncnc1N1CC2(CCN(C(=O)[C@@H]3C[C@@H](F)CN3)CC2)C1)C(C)C` [Example 36], the IC50 is 4 nM in assay [1] and 66 nM in assay [2].

Turning to `CC(C)N(CCO)C(=O)c1cc(F)ccc1Oc1nncnc1N1CC2(CCN(C(=O)[C@H]3NC[C@@H]4CCC[C@@H]43)CC2)C1` [Example 104], the figures for the IC50 in assay [1] and in assay [2] were 4.5 nM and 26.7 nM, respectively.

Consider `CO[C@H]1CCN[C@@H]1C(=O)N1CCC2(CC1)CN(c1ncnnc1Oc1ccc(F)cc1-c1ccc(C#N)cc1C1CC1)C2` [Example 96], for which the IC50 in assay [1] was determined as 4 nM; in assay [2] it was 5.6 nM.

Turning to `CC(C)n1ncnc1-c1cc(F)ccc1Oc1cncnc1N1CC2(CCN(C(=O)[C@@H]3C[C@@H](F)CN3)CC2)C1` [Example 43], the IC50 in assay [1] was determined as 4.8 nM; in assay [2], 170 nM.

In the case of `CCN(C(=O)c1cc(F)ccc1Oc1nncnc1N1CC2(CCN(C(=O)[C@@H]3NCCC3(C)C)CC2)C1)C(C)C` [Example 66], the IC50 in assay [1] turned out to be 11 nM; in assay [2], 308 nM.

`CCN(C(=O)c1cc(F)ccc1Oc1cncnc1N1CC2(CCN(C(=O)[C@@H]3C[C@@H](O)CN3)CC2)C1)C(C)C` [Example 5]: the values for the IC50 in assay [1] and in assay [2] were 7 nM and 440 nM, respectively.

Regarding `CCN(C(=O)c1cc(F)ccc1Oc1cncnc1N1CC2(CCN(C(=O)[C@@H]3C[C@@H](F)CN3)C2)C1)C(C)C` [Example 37], the IC50 in assay [1] is 15.4 nM.

In the case of `CCN(C(=O)c1cc(F)ccc1Oc1cncnc1N1CC2(CCN(C(=O)[C@@H]3C[C@](F)(CF)CN3)CC2)C1)C(C)C` [Example 12], the IC50 is 4.7 nM in assay [1] and 68.2 nM in assay [2].

On to `CCN(C(=O)c1cc(F)ccc1Oc1cncnc1N1CC2(CCN(C(=O)[C@@H]3C[C@]4(C)C[C@@H]4N3)CC2)C1)C(C)C` [Example 6], for which the IC50 in assay [1] was 6 nM; in assay [2], 33.8 nM.

As to `CCN(C(=O)c1cc(F)ccc1Oc1nncnc1N1CC2(CCN(C(=O)[C@H]3NC[C@H]4CC(F)(F)C[C@H]43)CC2)C1)C(C)C` (single isomer, unassigned) [Example 98a], the IC50 in assay [1] came to 5.4 nM; in assay [2] it was 333 nM.

On to `CCN(C(=O)c1cc(F)ccc1Oc1cncnc1N1CC2(CCN(C(=O)[C@@H]3C[C@@H](NS(C)(=O)=O)CN3)CC2)C1)C(C)C` [Example 18], for which the IC50 in assay [1] was found to be 13.5 nM.

With `CCN(C(=O)c1cc(F)ccc1Oc1cncnc1N1CC2(CCN(C(=O)[C@@H]3C[C@@H](S(C)(=O)=O)CN3)CC2)C1)C(C)C` [Example 15], the IC50 in assay [1] worked out at 55.2 nM.

`CCN(C(=O)c1cc(F)ccc1Oc1cncnc1N1CC2(CCN(C(=O)[C@@H]3CC(C)(O)CN3)CC2)C1)C(C)C` (some centres unmarked) [Example 14]: the IC50 in assay [1] stood at 9.2 nM.

With `CCN(C(=O)c1cc(F)ccc1Oc1cncnc1N1CC2(CCN(C(=O)[C@@H]3C[C@H](NS(C)(=O)=O)CN3)CC2)C1)C(C)C` [Example 16], the IC50 in assay [1] amounted to 22.3 nM.

For the compound `CCN(C(=O)c1cc(F)ccc1Oc1cncnc1N1CC2(CCN(C(=O)[C@@H]3CSCN3)CC2)C1)C(C)C` [Example 52], the IC50 in assay [1] was determined as 21 nM.

Consider `CCN(C(=O)c1cc(F)ccc1Oc1cncnc1N1CC2(CCN(C(=O)[C@@H]3C[C@]4(COC)CC4N3)CC2)C1)C(C)C` (some centres unmarked) [Example 13], for which the IC50 in assay [1] turned out to be 16.7 nM.

With `CCN(C(=O)c1cc(F)ccc1Oc1nncnc1N1CC2(CCN(C(=O)C3NC[C@H]4CC(F)(F)C[C@@H]34)CC2)C1)C(C)C` (single isomer, unassigned) [Example 98c], the IC50 in assay [1] worked out at 44.5 nM.

Values taken from patent US20240317748A1, “CARBONYL SUBSTITUTED DIAZASPIRO COMPOUNDS AND ITS USE” (BIONOVA PHARMACEUTICALS (SHANGHAI) LIMITED, priority 2021, published 2024).
